Source: US7772241B2, “Variolin derivatives and their use as antitumor agents” (Pharma Mar S.A., priority 2001, dated 2010)
Read-outs that look alike come from different tables or passages of the source.

What was measured:
[1] = test system: K-562; experiment: Inhibition of cells growth by colorimetric (SRB) assay, K-562
From the text: (§1) The finality of these assays is to interrupt the growth of a “in vitro” tumor cell culture by means a continued exhibition of the cells to the sample to be testing.
(§2) This form of the assay employs 96 well cell culture microplates of 9 mm diameter (Faircloth, 1988; Mosmann, 1983). Most of the cell lines are obtained from American Type Culture Collection (ATCC) derived from different human cancer types.
(§3) Cells are maintained in RPMI 1640 10% FBS, supplemented with 0.1 g/l penicillin and 0.1 g/l streptomycin sulphate and then incubated at 37° C., 5% CO2 and 98% humidity. For the experiments, cells were harvested from subconfluent cultures using trypsin and resuspended in fresh medium before plating.
(§4) Cells are seeded in 96 well microtiter plates, at 5×10^3 cells per well in aliquots of 195 μl medium, and they are allowed to attach to the plate surface by growing in drug free medium for 18 hours. Afterward, samples are added in aliquots of 5 μl in a ranging from 10 to 10^−8 μg/ml, dissolved in DMSO/EtOH/PBS (0.5:0.5:99). After 48 hours exposure, the antitumor effect are measured by the SRB methodology: cells are fixed by adding 50 μl of cold 50% (wt/vol) trichloroacetic acid (TCA) and incubating for 60 minutes at 4° C. Plates are washed with deionized water and dried. One hundred μl of SRB solution (0.4% wt/vol in 1% acetic acid) is added to each microtiter well and incubated for 10 minutes at room temperature. Unbound SRB is removed by washing with 1% acetic acid. Plates are air dried and bound stain is solubilized with Tris buffer. Optical densities are read on a automated spectrophotometric plate reader at a single wavelength of 490 nm.
(§5) The values for mean +/−SD of data from triplicate wells are calculated. Some parameters for cellular responses can be calculated: GI=growth inhibition, TGI=total growth inhibition (cytostatic effect) and LC=cell killing (cytotoxic effect).

[2] = test system: A-549; experiment: Inhibition of cells growth by colorimetric (SRB) assay, A-549
From the text: as §1, §2, §3, §4, §5

[3] = test system: SK-MEL-28; experiment: Inhibition of cells growth by colorimetric (SRB) assay, SK-MEL-28
From the text: as §1, §2, §3, §4, §5

[4] = test system: HT-29; experiment: Inhibition of cells growth by colorimetric (SRB) assay, HT-29
From the text: as §1, §2, §3, §4, §5

[5] = test system: LoVo; experiment: Inhibition of cells growth by colorimetric (SRB) assay, LoVo
From the text: as §1, §2, §3, §4, §5

[6] = test system: LoVo-Dox; experiment: Inhibition of cells growth by colorimetric (SRB) assay, LoVo-Dox
From the text: as §1, §2, §3, §4, §5

[7] = test system: DU-145; experiment: Inhibition of cells growth by colorimetric (SRB) assay, DU-145
From the text: as §1, §2, §3, §4, §5

[8] = test system: SK-BR-3; experiment: Inhibition of cells growth by colorimetric (SRB) assay, SK-BR-3; details: SRB assay, 48 hours exposure
From the text: as §1, §2, §3, §4, §5

[9] = test system: IGROV-1; experiment: Inhibition of cells growth by colorimetric (SRB) assay, IGROV-1
From the text: as §1, §2, §3, §4, §5

[10] = test system: IGROV-ET; experiment: Inhibition of cells growth by colorimetric (SRB) assay, IGROV-ET
From the text: as §1, §2, §3, §4, §5

[11] = test system: SK-OV-3; experiment: Inhibition of cells growth by colorimetric (SRB) assay, SK-OV-3
From the text: as §1, §2, §3, §4, §5

[12] = test system: PANC-1; experiment: Inhibition of cells growth by colorimetric (SRB) assay, PANC-1
From the text: as §1, §2, §3, §4, §5

[13] = test system: LNCaP; experiment: Inhibition of cells growth by colorimetric (SRB) assay, LNCaP
From the text: as §1, §2, §3, §4, §5

Structure (SMILES): Cl.Nc1nccc(-c2c3c(N)ccnc3n3c(N)nccc23)n1 [Compound 91]
- TGI K-562 ([1]; SRB assay, 48 hours exposure): 3.78E−06
- GI50 ([1]; read-out: GI50 K-562, SRB assay, 48 hours exposure): 1.32 µM
- CC50 ([1]; read-out: LC50 K-562, SRB assay, 48 hours exposure): 24.9 µM
- TGI A-549 ([2]; SRB assay, 48 hours exposure): 2.09E−06
- GI50 ([2]; read-out: GI50 A-549, SRB assay, 48 hours exposure): 1.09 µM
- CC50 ([2]; read-out: LC50 A-549, SRB assay, 48 hours exposure): 8.29 µM
- TGI MEL-28 ([3]; SRB assay, 48 hours exposure): 5.10E−07
- GI50 ([3]; read-out: GI50 MEL-28, SRB assay, 48 hours exposure): 0.18 µM
- CC50 ([3]; read-out: LC50 MEL-28, SRB assay, 48 hours exposure): 1.25 µM
- TGI HT-29 ([4]; SRB assay, 48 hours exposure): 2.49E−06
- GI50 ([4]; read-out: GI50 HT-29, SRB assay, 48 hours exposure): 1.34 µM
- CC50 ([4]; read-out: LC50 HT-29, SRB assay, 48 hours exposure): 24.9 µM
- TGI LOVO ([5]; SRB assay, 48 hours exposure): 8.49E−07
- GI50 ([5]; read-out: GI50 LOVO, SRB assay, 48 hours exposure): 0.201 µM
- CC50 ([5]; read-out: LC50 LOVO, SRB assay, 48 hours exposure): 6.82 µM
- TGI LOVO-DOX ([6]; SRB assay, 48 hours exposure): 1.86E−06
- GI50 ([6]; read-out: GI50 LOVO-DOX, SRB assay, 48 hours exposure): 0.774 µM
- CC50 ([6]; read-out: LC50 LOVO-DOX, SRB assay, 48 hours exposure): 7.47 µM
- TGI DU-145 ([7]; SRB assay, 48 hours exposure): 1.34E−06
- GI50 ([7]; read-out: GI50 DU-145, SRB assay, 48 hours exposure): 0.336 µM
- CC50 ([7]; read-out: LC50 DU-145, SRB assay, 48 hours exposure): 24.9 µM
- TGI SK-BR-3 [8]: 6.45E−07
- GI50 ([8]; read-out: GI50 SK-BR-3): 0.251 µM
- CC50 ([8]; read-out: LC50 SK-BR-3): 1.65 µM
- TGI IGROV ([9]; SRB assay, 48 hours exposure): 9.73E−07
- GI50 ([9]; read-out: GI50 IGROV, SRB assay, 48 hours exposure): 0.241 µM
- CC50 ([9]; read-out: LC50 IGROV, SRB assay, 48 hours exposure): 6.02 µM
- TGI IGROV-ET ([10]; SRB assay, 48 hours exposure): 1.98E−06
- GI50 ([10]; read-out: GI50 IGROV-ET, SRB assay, 48 hours exposure): 1.16 µM
- CC50 ([10]; read-out: LC50 IGROV-ET, SRB assay, 48 hours exposure): 24.9 µM
- TGI SKOV-3 ([11]; SRB assay, 48 hours exposure): 2.12E−06
- GI50 ([11]; read-out: GI50 SKOV-3, SRB assay, 48 hours exposure): 0.7 µM
- CC50 ([11]; read-out: LC50 SKOV-3, SRB assay, 48 hours exposure): 24.9 µM
- TGI PANC-1 ([12]; SRB assay, 48 hours exposure): 2.44E−06
- GI50 ([12]; read-out: GI50 PANC-1, SRB assay, 48 hours exposure): 0.896 µM
- CC50 ([12]; read-out: LC50 PANC-1, SRB assay, 48 hours exposure): 16.2 µM

Structure (SMILES): CSc1nccc(-c2c3c(Cl)ccnc3n3c(N)nccc23)n1 [Compound 107]
- GI50 ([1]; Homo sapiens, K562, 48 h, read-out: GI50 K-562, SRB assay, 48 hours exposure): 2.18 µM
- CC50 ([1]; Homo sapiens, K562, 48 h, read-out: LC50 K-562, SRB assay, 48 hours exposure): 29.2 µM
- TGI K-562 ([1]; SRB assay, 48 hours exposure): 9.19E−06
- GI50 ([2]; Homo sapiens, A549, 48 h, read-out: GI50 A-549, SRB assay, 48 hours exposure): 4.52 µM
- CC50 ([2]; Homo sapiens, A549, 48 h, read-out: LC50 A-549, SRB assay, 48 hours exposure): 29.2 µM
- TGI A-549 ([2]; SRB assay, 48 hours exposure): 2.70E−05
- GI50 ([3]; Homo sapiens, SK-MEL-28, 48 h, read-out: GI50 MEL-28, SRB assay, 48 hours exposure): 0.0248 µM
- CC50 ([3]; Homo sapiens, SK-MEL-28, 48 h, read-out: LC50 MEL-28, SRB assay, 48 hours exposure): 29.2 µM
- TGI MEL-28 ([3]; SRB assay, 48 hours exposure): 5.19E−06
- GI50 ([4]; Homo sapiens, HT-29, 48 h, read-out: GI50 HT-29, SRB assay, 48 hours exposure): 1.11 µM
- CC50 ([4]; Homo sapiens, HT-29, 48 h, read-out: LC50 HT-29, SRB assay, 48 hours exposure): 29.2 µM
- TGI HT-29 ([4]; SRB assay, 48 hours exposure): 2.92E−05
- GI50 ([5]; Homo sapiens, LoVo, 48 h, read-out: GI50 LOVO, SRB assay, 48 hours exposure): 0.173 µM
- CC50 ([5]; Homo sapiens, LoVo, 48 h, read-out: LC50 LOVO, SRB assay, 48 hours exposure): 29.2 µM
- TGI LOVO ([5]; SRB assay, 48 hours exposure): 3.79E−06
- GI50 ([6]; Homo sapiens, 48 h, read-out: GI50 LOVO-DOX, SRB assay, 48 hours exposure): 0.127 µM
- CC50 ([6]; Homo sapiens, 48 h, read-out: LC50 LOVO-DOX, SRB assay, 48 hours exposure): 23 µM
- TGI LOVO-DOX ([6]; SRB assay, 48 hours exposure): 5.98E−07
- GI50 ([7]; Homo sapiens, DU-145, 48 h, read-out: GI50 DU-145, SRB assay, 48 hours exposure): 0.653 µM
- CC50 ([7]; Homo sapiens, DU-145, 48 h, read-out: LC50 DU-145, SRB assay, 48 hours exposure): 29.2 µM
- TGI DU-145 ([7]; SRB assay, 48 hours exposure): 1.44E−05
- GI50 ([13]; Homo sapiens, LNCaP, 48 h, read-out: GI50 LN-caP, SRB assay, 48 hours exposure): 3.38 µM
- CC50 ([13]; Homo sapiens, LNCaP, 48 h, read-out: LC50 LN-caP, SRB assay, 48 hours exposure): 25.3 µM
- TGI LN-caP ([13]; SRB assay, 48 hours exposure): 9.25E−06
- GI50 ([9]; Homo sapiens, IGROV-1, 48 h, read-out: GI50 IGROV, SRB assay, 48 hours exposure): 2.95 µM
- CC50 ([9]; Homo sapiens, IGROV-1, 48 h, read-out: LC50 IGROV, SRB assay, 48 hours exposure): 23.7 µM
- TGI IGROV ([9]; SRB assay, 48 hours exposure): 8.34E−06
- GI50 ([10]; Homo sapiens, 48 h, read-out: GI50 IGROV-ET, SRB assay, 48 hours exposure): 1.57 µM
- CC50 ([10]; Homo sapiens, 48 h, read-out: LC50 IGROV-ET, SRB assay, 48 hours exposure): 29.2 µM
- TGI IGROV-ET ([10]; SRB assay, 48 hours exposure): 1.44E−05
- GI50 ([11]; Homo sapiens, SK-OV-3, 48 h, read-out: GI50 SKOV-3, SRB assay, 48 hours exposure): 0.195 µM
- CC50 ([11]; Homo sapiens, SK-OV-3, 48 h, read-out: LC50 SKOV-3, SRB assay, 48 hours exposure): 29.2 µM
- TGI SKOV-3 ([11]; SRB assay, 48 hours exposure): 3.35E−06
- GI50 ([12]; Homo sapiens, PANC-1, 48 h, read-out: GI50 PANC-1, SRB assay, 48 hours exposure): 4.99 µM
- CC50 ([12]; Homo sapiens, PANC-1, 48 h, read-out: LC50 PANC-1, SRB assay, 48 hours exposure): 29.2 µM
- TGI PANC-1 ([12]; SRB assay, 48 hours exposure): 2.92E−05
